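Briefly, cells in 96-well plates were exposed to five compound concentrations for 48 h, and endpoints were estimated by linear interpolation. Abbreviation: GI50, concentration required for 50% inhibition of growth.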 Calls of active or inactive are those of the source. Rule as the data show it: active = GI50 up to about 1.1 µM and inactive = higher.
Experiments:
Assay in all cases: inhibition of tumour cell growth, NCI panel, 48 h
[1] = system: SNB-75
[2] = system: TK-10
[3] = system: M14
[4] = system: SK-MEL-28
[5] = system: U-251
[6] = system: SK-MEL-2
[7] = system: OVCAR-8
[8] = system: SW-620
[9] = system: SN12C
[10] = system: SF-539
[11] = system: NCI-H460
[12] = system: KM12
[13] = system: HCT-15
[14] = system: HL-60
[15] = system: OVCAR-3
[16] = system: NCI/ADR-RES
[17] = system: UO-31
[18] = system: T47D
[19] = system: OVCAR-4
[20] = system: DU-145

SMILES | GI50 [1] | GI50 [2] | GI50 [3] | GI50 [4] | GI50 [5] | GI50 [6] | GI50 [7] | GI50 [8] | GI50 [9] | GI50 [10] | GI50 [11] | GI50 [12] | GI50 [13] | GI50 [14] | GI50 [15] | GI50 [16] | GI50 [17] | GI50 [18] | GI50 [19] | GI50 [20]
CC(=O)CSCc1ccccn1 | 29.4 µM (inactive) | > 100 µM (inactive) | 60.5 µM (inactive) | 40.2 µM (inactive) | 32.2 µM (inactive) | 25.9 µM (inactive) | 38.4 µM (inactive) | 45.8 µM (inactive) | 75.5 µM (inactive) | 27 µM (inactive) | 30.6 µM (inactive) | 36.8 µM (inactive) | 86.5 µM | 29.1 µM (inactive) | 30.3 µM (inactive) | > 100 µM (inactive) | > 100 µM (inactive) | 34.8 µM (inactive) | 83.8 µM (inactive) | 65.2 µM (inactive)
N=C(N)SCc1ccc(Cl)c2ccccc12.O=[N+]([O-])c1c(O)c(Cl)cc(Cl)c1Cl | 11.1 µM (inactive) | 7.67 µM (inactive) | 10.3 µM (inactive) | 14.1 µM (inactive) | 12.9 µM (inactive) | 8.95 µM (inactive) | 17.7 µM (inactive) | 12.2 µM (inactive) | 11.3 µM (inactive) | 8.65 µM (inactive) | 8.32 µM (inactive) | 13.6 µM (inactive) | 14.3 µM | 4.38 µM (inactive) | 9.18 µM (inactive) | 17.9 µM (inactive) | 9.98 µM (inactive) | 4.19 µM (inactive) | 4.65 µM (inactive) | 14 µM (inactive)
C#CC[C@@H]1C(=O)N(Cc2ccc(OC)cc2)[C@@H](C(C)C)C(=O)N1Cc1ccc(OC)cc1 | 24 µM (inactive) | 49.9 µM (inactive) | 36.5 µM (inactive) | 84.7 µM (inactive) | 39.7 µM (inactive) | 19.9 µM (inactive) | 46.1 µM (inactive) | 40.5 µM (inactive) | 53 µM (inactive) | 29.2 µM (inactive) | 30.7 µM (inactive) | 35.8 µM (inactive) | 40.5 µM | 3.66 µM (inactive) | 51.4 µM (inactive) | 31.2 µM (inactive) | 33.7 µM (inactive) | 16.4 µM (inactive) | 74 µM (inactive) | 29.5 µM (inactive)
Cc1cccc(NC(=S)Nc2ccccc2Cl)n1 | 19.3 µM (inactive) | 34.8 µM (inactive) | > 100 µM (inactive) | > 100 µM (inactive) | 33.6 µM (inactive) | > 100 µM (inactive) | 29.6 µM (inactive) | > 100 µM (inactive) | 51.8 µM (inactive) | 32.1 µM (inactive) | 59.3 µM (inactive) | 25.8 µM (inactive) | 76.9 µM | > 100 µM (inactive) | > 100 µM (inactive) | 49 µM (inactive) | > 100 µM (inactive) | 29 µM (inactive) | 24.4 µM (inactive) | > 100 µM (inactive)
CN(CCNC(=O)c1cn(C)c2c1ccc1cc(Cl)c(Cl)cc12)CCNC(=O)c1cn(C)c2c1ccc1cc(Cl)c(Cl)cc12 | 1.58 µM (inactive) | 3.71 µM (inactive) | 1.75 µM (inactive) | 1.73 µM (inactive) | 1.77 µM (inactive) | 1.84 µM (inactive) | 1.79 µM (inactive) | 1.8 µM (inactive) | 1.74 µM (inactive) | 2.61 µM (inactive) | 1.9 µM (inactive) | 1.75 µM (inactive) | 1.74 µM | 1.32 µM (inactive) | 2.18 µM (inactive) | 2.26 µM (inactive) | 1.72 µM (inactive) | 1.93 µM (inactive) | 2.5 µM (inactive) | 1.82 µM (inactive)
CN(C)c1ccc(/N=N/c2ccccn2)cc1 | 52.1 µM (inactive) | 35.7 µM (inactive) | 9.82 µM (inactive) | > 100 µM (inactive) | 4.66 µM (inactive) | 55.1 µM (inactive) | 38.9 µM (inactive) | 17.5 µM (inactive) | 41.5 µM (inactive) | 52.2 µM (inactive) | 28.8 µM (inactive) | 43.1 µM (inactive) | 25.2 µM | 4.26 µM (inactive) | 4.21 µM (inactive) | 5.04 µM (inactive) | 24.1 µM (inactive) | 11.2 µM (inactive) | 36.2 µM (inactive) | 48.6 µM (inactive)
COc1cccc(/C=C2\S/C(=N/Nc3nc(C)c(C)s3)NC2=O)c1O | > 100 µM (inactive) | > 100 µM (inactive) | > 100 µM (inactive) | > 100 µM (inactive) | > 100 µM (inactive) | > 100 µM (inactive) | 36.6 µM (inactive) | > 100 µM (inactive) | > 100 µM (inactive) | > 100 µM (inactive) | > 100 µM (inactive) | > 100 µM (inactive) | > 100 µM | 56.1 µM (inactive) | 87.1 µM (inactive) | > 100 µM (inactive) | 74.1 µM (inactive) | 19 µM (inactive) | > 100 µM (inactive) | > 100 µM (inactive)
Cc1c(C#N)c(N)n(C2OCC(O)C(O)C2O)c(=S)c1C#N (centres undefined) | 83.4 µM (inactive) | > 100 µM (inactive) | > 100 µM (inactive) | > 100 µM (inactive) |  | 21.4 µM (inactive) | > 100 µM (inactive) | > 100 µM (inactive) | > 100 µM (inactive) | > 100 µM (inactive) | > 100 µM (inactive) | > 100 µM (inactive) | > 100 µM | > 100 µM (inactive) | > 100 µM (inactive) | > 100 µM (inactive) | > 100 µM (inactive) | > 100 µM (inactive) |  | > 100 µM (inactive)
CCCOc1ccc2sc(NC(=O)c3cc([N+](=O)[O-])cc([N+](=O)[O-])c3)nc2c1 | 30.5 µM (inactive) | 28.1 µM (inactive) | 50.4 µM (inactive) | 50.5 µM (inactive) | 32.4 µM (inactive) | 50.2 µM (inactive) | 31.3 µM (inactive) | 31 µM (inactive) | 42.1 µM (inactive) | 29.2 µM (inactive) | 50.4 µM (inactive) | 26.8 µM (inactive) | 53.7 µM | 67.3 µM (inactive) | 26.3 µM (inactive) | 22.6 µM (inactive) | 18.5 µM (inactive) | 53.2 µM (inactive) | 18.8 µM (inactive) | 60.7 µM (inactive)
CC(=O)OCC1=C(C(=O)O)N2C(=O)C(NC(=O)CSc3ccncc3)C2SC1 (centres undefined) | > 100 µM (inactive) |  | > 100 µM (inactive) | > 100 µM (inactive) | > 100 µM (inactive) | > 100 µM (inactive) | > 100 µM (inactive) | > 100 µM (inactive) | > 100 µM (inactive) | > 100 µM (inactive) | > 100 µM (inactive) | > 100 µM (inactive) | > 100 µM | > 100 µM (inactive) | > 100 µM (inactive) | > 100 µM (inactive) | > 100 µM (inactive) | > 100 µM (inactive) |  | > 100 µM (inactive)
CC(C)=CCC/C(=C/CC/C(=C\CCc1ccoc1)C(=O)O)C(=O)O | > 100 µM (inactive) | > 100 µM (inactive) | > 100 µM (inactive) | > 100 µM (inactive) | > 100 µM (inactive) | > 100 µM (inactive) | > 100 µM (inactive) | > 100 µM (inactive) | > 100 µM (inactive) | > 100 µM (inactive) |  | > 100 µM (inactive) | > 100 µM | > 100 µM (inactive) | > 100 µM (inactive) | > 100 µM (inactive) | > 100 µM (inactive) | > 100 µM (inactive) | > 100 µM (inactive) | > 100 µM (inactive)
CC1=C(N2CC2)C(=O)c2nc3n(c2C1=O)CCC3OC(=O)CCl (centres undefined) | 0.0221 µM (active) | 0.13 µM (active) | 0.0361 µM (active) | 0.0555 µM (active) | 0.0252 µM (active) | 0.0478 µM (active) | 0.0452 µM (active) | 0.0316 µM (active) | 0.0573 µM (active) | 0.056 µM (active) | 0.0183 µM (active) | 0.0377 µM (active) | 0.0194 µM | 0.206 µM (active) | 0.0771 µM (active) | 0.0249 µM (active) | 0.0483 µM (active) | 1.11 µM (active) | 0.0719 µM (active) | 0.021 µM (active)
CCSc1nc(-c2cccs2)nc2ccc(I)cc12 | > 100 µM (inactive) | 39.6 µM (inactive) | > 100 µM (inactive) | > 100 µM (inactive) | > 100 µM (inactive) | > 100 µM (inactive) | > 100 µM (inactive) | > 100 µM (inactive) | > 100 µM (inactive) | > 100 µM (inactive) | > 100 µM (inactive) | 72.8 µM (inactive) | 89.9 µM | > 100 µM (inactive) | 11.2 µM (inactive) | > 100 µM (inactive) | > 100 µM (inactive) | 1.5 µM (inactive) | > 100 µM (inactive) | > 100 µM (inactive)
CNC=O | 8150 µM (inactive) | > 10000 µM (inactive) | > 10000 µM (inactive) | > 10000 µM (inactive) | 9930 µM (inactive) | > 10000 µM (inactive) | > 10000 µM (inactive) | > 10000 µM (inactive) | > 7740 µM (inactive) | > 10000 µM (inactive) | > 10000 µM (inactive) | > 10000 µM (inactive) | > 10000 µM | > 10000 µM (inactive) | > 9310 µM (inactive) | > 10000 µM (inactive) | > 10000 µM (inactive) | > 10000 µM (inactive) | > 10000 µM (inactive) | > 10000 µM (inactive)
N[C@H](C(=O)O)[C@@H]1CC(Cl)=NO1 [ACIVICIN] | 25.9 µM (inactive) | 2.7 µM (inactive) | 2.9 µM (inactive) | 4.4 µM (inactive) | 2.21 µM (inactive) | 4.61 µM (inactive) | 2.18 µM (inactive) | 1.07 µM (active) | 3.5 µM (inactive) | 3.56 µM (inactive) | 0.452 µM (active) |  | 0.738 µM | 3.44 µM (inactive) | 2.17 µM (inactive) | 4.44 µM (inactive) | 6.25 µM (inactive) | 7.73 µM (inactive) | 14.6 µM (inactive) | 2.48 µM (inactive)
